# Key:
# kochia [1] = experiment: Test C preemergence; type: in vivo, Bassia scoparia; settings: 0 to 100 scale (0 no effect, 100 complete control)
# Method in brief: (§1)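 Test material, in non-phytotoxic solvent with surfactant, was sprayed on the soil directly after seeding (preemergence) or on young plants of 2–10 cm with one to two leaves (postemergence). Greenhouse, 10 days; 0–100 visual control scale.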
# wheat [2] = experiment: Test C postemergence; type: in vivo, Triticum aestivum; settings: 10 days
# Method in brief: as §1
# oat, wild [3] = experiment: Test C preemergence; type: in vivo, Avena fatua; settings: 0 to 100 scale (0 no effect, 100 complete control)
# Method in brief: as §1
# corn [4] = experiment: Test C preemergence; type: in vivo, Zea mays; settings: 0 to 100 scale (0 no effect, 100 complete control)
# Method in brief: as §1
# wheat [5] = experiment: Test C preemergence; type: in vivo, Triticum aestivum; settings: 0 to 100 scale (0 no effect, 100 complete control)
# Method in brief: as §1
# pigweed, palmer [6] = experiment: Test C postemergence; type: in vivo, Amaranthus palmeri; settings: 10 days
# Method in brief: as §1
# pigweed, palmer [7] = experiment: Test C preemergence; type: in vivo, Amaranthus palmeri; settings: 0 to 100 scale (0 no effect, 100 complete control)
# Method in brief: as §1
# sedge, umbrella = experiment: Test D flooded paddy test; type: in vivo, Cyperus difformis; settings: 250 g ai/ha, applied to paddy water, visual rating after 13 to 14 days, scale 0 to 100 (0 no effect, 100 complete control)
# Method in brief: (§2)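 Plants grown to the 2-leaf stage; pots flooded to 3 cm above soil at treatment and held at that depth throughout. Test compounds applied directly to the paddy water. After 13 to 14 days in a greenhouse, response was rated visually versus controls on a 0 (no effect) to 100 (complete control) scale.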
# rice = experiment: Test D flooded paddy test; type: in vivo, Oryza sativa; settings: 250 g ai/ha, applied to paddy water, visual rating after 13 to 14 days, scale 0 to 100 (0 no effect, 100 complete control)
# Method in brief: as §2
# blackgrass [8] = experiment: Test C postemergence; type: in vivo, Alopecurus myosuroides; settings: 10 days
# Method in brief: as §1
# horseweed = experiment: Test C postemergence; type: in vivo, Erigeron canadensis; settings: 10 days
# Method in brief: as §1
# galium = experiment: Test C postemergence; type: in vivo, Galium aparine; settings: 10 days
# Method in brief: as §1
# green foxtail [9] = experiment: Test C postemergence; type: in vivo, Setaria viridis; settings: 10 days
# Method in brief: as §1
# ducksalad = experiment: Test D flooded paddy test; type: in vivo, Heteranthera limosa; settings: 250 g ai/ha, applied to paddy water, visual rating after 13 to 14 days, scale 0 to 100 (0 no effect, 100 complete control)
# Method in brief: as §2
# ragweed [10] = experiment: Test C postemergence; type: in vivo, Ambrosia artemisiifolia; settings: 10 days
# Method in brief: as §1
# corn [11] = experiment: Test C postemergence; type: in vivo, Zea mays; settings: 10 days
# Method in brief: as §1
# soybean [12] = experiment: Test C postemergence; type: in vivo, Glycine max; settings: 10 days
# Method in brief: as §1
# blackgrass [13] = experiment: Test C preemergence; type: in vivo, Alopecurus myosuroides; settings: 0 to 100 scale (0 no effect, 100 complete control)
# Method in brief: as §1
# barnyardgrass [14] = experiment: Test C preemergence; type: in vivo, Echinochloa crusgalli; settings: 0 to 100 scale (0 no effect, 100 complete control)
# Method in brief: as §1
# soybean [15] = experiment: Test C preemergence; type: in vivo, Glycine max; settings: 0 to 100 scale (0 no effect, 100 complete control)
# Method in brief: as §1
# green foxtail [16] = experiment: Test C preemergence; type: in vivo, Setaria viridis; settings: 0 to 100 scale (0 no effect, 100 complete control)
# Method in brief: as §1
# ragweed [17] = experiment: Test C preemergence; type: in vivo, Ambrosia artemisiifolia; settings: 0 to 100 scale (0 no effect, 100 complete control)
# Method in brief: as §1
# kochia [18] = experiment: Test C postemergence; type: in vivo, Bassia scoparia; settings: 10 days
# Method in brief: as §1
# ryegrass, Italian [19] = experiment: Test C postemergence; type: in vivo, Lolium multiflorum; settings: 10 days
# Method in brief: as §1
# barnyardgrass [20] = experiment: Test D flooded paddy test; type: in vivo, Echinochloa crus-galli; settings: 250 g ai/ha, applied to paddy water, visual rating after 13 to 14 days, scale 0 to 100 (0 no effect, 100 complete control)
# Method in brief: as §2
# oat, wild [21] = experiment: Test C postemergence; type: in vivo, Avena fatua; settings: 10 days
# Method in brief: as §1
# barnyardgrass [22] = experiment: Test C postemergence; type: in vivo, Echinochloa crusgalli; settings: 10 days
# Method in brief: as §1
# ryegrass, Italian [23] = experiment: Test C preemergence; type: in vivo, Lolium multiflorum; settings: 0 to 100 scale (0 no effect, 100 complete control)
# Method in brief: as §1
# [24] = Preemergence, 500 g ai/ha, visual rating after 10 days
# [25] = Test C, preemergence, 125 g ai/ha
# [26] = 125 g ai/ha, postemergence, 0 to 100 scale, 0 no effect, 100 complete control
# [27] = Postemergence, 500 g ai/ha, visual 0 to 100 scale (0 no effect, 100 complete control)
smiles,measurement,setting,value
"Cc1ccc(-n2cnc(C(C)(C)C)n2)cc1C(=O)N1CC(C(F)(F)F)Oc2c(Cl)cccc21 (single isomer, unassigned) [Compound 192]","Plant response rating, Kochia",kochia [1]; [24],100
same,Kochia plant response rating,kochia [1]; [25],60
same,"Plant response rating, Wheat",wheat [2]; [26],20
same,"Plant response rating, Wheat",wheat [2]; [27],20
same,"Plant response rating, Oat, Wild","oat, wild [3]; [24]",90
same,"Oat, Wild plant response rating","oat, wild [3]; [25]",40
same,"Plant response rating, Corn",corn [4]; [24],20
same,Corn plant response rating,corn [4]; [25],20
same,"Plant response rating, Wheat",wheat [5]; [24],30
same,Wheat plant response rating,wheat [5]; [25],0
same,"Plant response rating, Pigweed, Palmer","pigweed, palmer [6]; [26]",90
same,"Plant response rating, Pigweed, Palmer","pigweed, palmer [6]; [27]",100
same,"Plant response rating, Pigweed, Palmer","pigweed, palmer [7]; [24]",100
same,"Pigweed, Palmer plant response rating","pigweed, palmer [7]; [25]",90
same,"Plant response rating, Sedge, Umbrella (Flood)","sedge, umbrella",0
same,"Plant response rating, Rice (Flood)",rice,0
same,"Plant response rating, Blackgrass",blackgrass [8]; [26],30
same,"Plant response rating, Blackgrass",blackgrass [8]; [27],30
same,"Plant response rating, Horseweed",horseweed; [26],0
same,"Plant response rating, Horseweed",horseweed; [27],30
same,"Plant response rating, Galium",galium; [26],100
same,"Plant response rating, Galium",galium; [27],100
same,"Plant response rating, Foxtail, Green",green foxtail [9]; [26],10
same,"Plant response rating, Foxtail, Green",green foxtail [9]; [27],80
same,"Plant response rating, Ducksalad (Flood)",ducksalad,0
same,"Plant response rating, Ragweed",ragweed [10]; [26],90
same,"Plant response rating, Ragweed",ragweed [10]; [27],100
same,"Plant response rating, Corn",corn [11]; [26],10
same,"Plant response rating, Corn",corn [11]; [27],20
same,"Plant response rating, Soybean",soybean [12]; [26],100
same,"Plant response rating, Soybean",soybean [12]; [27],100
same,"Plant response rating, Blackgrass",blackgrass [13]; [24],80
same,Blackgrass plant response rating,blackgrass [13]; [25],70
same,"Plant response rating, Barnyardgrass",barnyardgrass [14]; [24],90
same,Barnyardgrass plant response rating,barnyardgrass [14]; [25],60
same,"Plant response rating, Soybean",soybean [15]; [24],90
same,Soybean plant response rating,soybean [15]; [25],30
same,"Plant response rating, Foxtail, Green",green foxtail [16]; [24],100
same,"Foxtail, Green plant response rating",green foxtail [16]; [25],100
same,"Plant response rating, Ragweed",ragweed [17]; [24],80
same,Ragweed plant response rating,ragweed [17]; [25],10
same,"Plant response rating, Kochia",kochia [18]; [26],80
same,"Plant response rating, Kochia",kochia [18]; [27],100
same,"Plant response rating, Ryegrass, Italian","ryegrass, Italian [19]; [26]",40
same,"Plant response rating, Ryegrass, Italian","ryegrass, Italian [19]; [27]",50
same,"Plant response rating, Barnyardgrass (Flood)",barnyardgrass [20],0
same,"Plant response rating, Oat, Wild","oat, wild [21]; [26]",20
same,"Plant response rating, Oat, Wild","oat, wild [21]; [27]",50
same,"Plant response rating, Barnyardgrass",barnyardgrass [22]; [26],20
same,"Plant response rating, Barnyardgrass",barnyardgrass [22]; [27],50
same,"Plant response rating, Ryegrass, Italian","ryegrass, Italian [23]; [24]",90
same,"Ryegrass, Italian plant response rating","ryegrass, Italian [23]; [25]",90
